Assay results reported in patent US11965039B2, “Compstatin analogues and their medical uses” (priority 2018, dated 2024).
Like-named read-outs stand apart in the source and are kept apart here. Starred links: 1 amine or outer side, 2 acyl side, 3 side chain; linkers in the order of their positions; H or OH if unused. Positions of bridges follow the written chain, without caps; N, C: chain ends. Non-standard residues stand in square brackets, D forms with d. Residues, ends and D or L forms follow the SMILES beside them. Groups on a side chain read outwards from the residue. *: point of attachment. C20 diacid = O=C(O)CCCCCCCCCCCCCCCCCCC(=O)*; Trp(1-Me) = Cn1cc(C[C@H](N)C(=O)O)c2ccccc21; C18 diacid = O=C(O)CCCCCCCCCCCCCCCCC(=O)*; γGlu = O=C(O)[C@H](CCC(=O)[*:2])N[*:1]; AEEA = NCCOCCOCC(=O)O; Sar = CNCC(=O)O

System: classical complement pathway
Assay: In vitro haemolysis assay (inhibition of classical complement pathway)
Format: cell-based, human
Conditions: read-out: IC50, inhibition of hemolysis
How it was run: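 Compound dilutions preincubated 15 min at room temperature with diluted human serum (titrated per batch for 70-90% maximal haemolysis), then antibody-sensitized sheep RBC (10^7/well) added for 30 min at 37 °C in Tris/casein buffer, pH 7.4. Stopped with EDTA; haemolysis read at 405 nm; IC50 by 4PL fit.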

[1] = human serum, sensitized sheep red blood cells, Table 3, given as upper bounds

Structure (SMILES) | IC50 [1] [nM] | IC50 [nM]
CC[C@H](C)[C@@H]1NC(=O)[C@@H](NC(=O)[C@H](Cc2ccccc2)NC(=O)[C@H](CCC(=O)O)NC(=O)[C@H](CO)NC(C)=O)CSSC[C@@H](C(=O)N(C)CC(=O)N[C@@H](CCC(=O)O)C(=O)NCC(=O)N[C@@H](CCC(=O)O)C(=O)NCCOCCOCC(=O)NCCOCCOCC(=O)N[C@@H](CCCCNC(=O)CC[C@H](NC(=O)CNC(=O)CC[C@H](NC(=O)CCCCCCCCCCCCCCCCCCC(=O)O)C(=O)O)C(=O)O)C(N)=O)NC(=O)[C@H](CCCNC(=N)N)NC(=O)[C@H](Cc2c[nH]cn2)NC(=O)[C@H](CCC(=O)O)NC(=O)CNC(=O)[C@H](Cc2c[nH]c3ccccc23)NC(=O)[C@H](CC(=O)O)NC(=O)[C@H](CCC(N)=O)NC(=O)[C@H](Cc2cn(C)c3ccccc23)NC1=O [Compound 128] (Ac-SEFCI[Trp(1-Me)]QDWGEHRC[Sar]EGE[AEEA][AEEA]K([γGlu-Gly-γGlu-C20 diacid])-NH2; disulfide 4-14) | < 100 | –
CC[C@H](C)[C@H](NC(C)=O)C(=O)N[C@H]1CSSC[C@@H](C(=O)N[C@H](C(N)=O)[C@@H](C)O)NC(=O)[C@H](CCCNC(=N)N)NC(=O)[C@H](Cc2c[nH]cn2)NC(=O)[C@H](CCC(=O)O)NC(=O)CNC(=O)[C@H](Cc2c[nH]c3ccccc23)NC(=O)[C@H](CCCCN)NC(=O)[C@H](CCC(N)=O)NC(=O)[C@H](Cc2c[nH]c3ccccc23)NC(=O)[C@H]([C@@H](C)CC)NC1=O [Compound 7] (Ac-ICIWQKWGEHRCT-NH2; disulfide 2-12) | < 1000 | –
CC[C@H](C)[C@@H]1NC(=O)[C@@H](NC(=O)[C@H](Cc2ccccc2)NC(=O)[C@H](CCC(=O)O)NC(C)=O)CSSC[C@@H](C(=O)N[C@@H](CCC(=O)O)C(=O)N[C@@H](CO)C(N)=O)NC(=O)[C@H](CCCNC(=N)N)NC(=O)[C@H](Cc2c[nH]cn2)NC(=O)[C@H](CCC(=O)O)NC(=O)CNC(=O)[C@H](Cc2c[nH]c3ccccc23)NC(=O)[C@H](CC(=O)O)NC(=O)[C@H](CCC(N)=O)NC(=O)[C@H](Cc2cn(C)c3ccccc23)NC1=O [Compound 85] (Ac-EFCI[Trp(1-Me)]QDWGEHRCES-NH2; disulfide 3-13) | < 100 | –
CC[C@H](C)[C@@H]1NC(=O)[C@@H](NC(=O)[C@H](Cc2ccccc2)NC(=O)[C@H](CCC(=O)O)NC(C)=O)CSSC[C@@H](C(=O)N(C)CC(=O)N[C@@H](CCC(=O)O)C(=O)N[C@@H](C)C(=O)NCCOCCOCC(=O)NCCOCCOCC(=O)N[C@@H](CCCCNC(=O)CC[C@H](NC(=O)CNC(=O)CC[C@H](NC(=O)CCCCCCCCCCCCCCCCC(=O)O)C(=O)O)C(=O)O)C(N)=O)NC(=O)[C@H](CCCNC(=N)N)NC(=O)[C@H](Cc2c[nH]cn2)NC(=O)[C@H](CCC(=O)O)NC(=O)CNC(=O)[C@H](Cc2c[nH]c3ccccc23)NC(=O)[C@H](CC(=O)O)NC(=O)[C@H](CCC(N)=O)NC(=O)[C@H](Cc2cn(C)c3ccccc23)NC1=O [Compound 145] (Ac-EFCI[Trp(1-Me)]QDWGEHRC[Sar]EA[AEEA][AEEA]K([γGlu-Gly-γGlu-C18 diacid])-NH2; disulfide 3-13) | < 100 | –
CC[C@H](C)[C@@H]1NC(=O)[C@@H](NC(=O)[C@H](Cc2ccc(O)cc2)NC(C)=O)CSSC[C@@H](C(=O)N[C@H](C(N)=O)[C@@H](C)O)NC(=O)[C@H](CCCNC(=N)N)NC(=O)[C@H](Cc2c[nH]cn2)NC(=O)[C@H](CCC(=O)O)NC(=O)CNC(=O)[C@H](Cc2c[nH]c3ccccc23)NC(=O)[C@H](CC(=O)O)NC(=O)[C@H](CCC(N)=O)NC(=O)[C@H](Cc2c[nH]c3ccccc23)NC1=O [Compound 9] (Ac-YCIWQDWGEHRCT-NH2; disulfide 2-12) | < 100 | –
CC[C@H](C)[C@@H]1NC(=O)[C@@H](NC(=O)[C@H](Cc2ccccc2)NC(=O)[C@H](CCC(=O)O)NC(=O)[C@H](CO)NC(C)=O)CSSC[C@@H](C(=O)N[C@@H](CO)C(=O)N[C@@H](CCC(=O)O)C(=O)N[C@@H](C)C(N)=O)NC(=O)[C@H](CCCNC(=N)N)NC(=O)[C@H](Cc2c[nH]cn2)NC(=O)[C@H](CCC(=O)O)NC(=O)CNC(=O)[C@H](Cc2c[nH]c3ccccc23)NC(=O)[C@H](CC(=O)O)NC(=O)[C@H](CCC(N)=O)NC(=O)[C@H](Cc2cn(C)c3ccccc23)NC1=O [Compound 84] (Ac-SEFCI[Trp(1-Me)]QDWGEHRCSEA-NH2; disulfide 4-14) | – | < 100
CC[C@H](C)[C@H](NC(C)=O)C(=O)N[C@H]1CSSC[C@@H](C(=O)N(C)CC(N)=O)NC(=O)[C@H](CCCNC(=N)N)NC(=O)[C@H](Cc2c[nH]cn2)NC(=O)[C@H](CCC(=O)O)NC(=O)CNC(=O)[C@H](Cc2c[nH]c3ccccc23)NC(=O)[C@H](CC(=O)O)NC(=O)[C@H](CCC(N)=O)NC(=O)[C@H](Cc2c[nH]c3ccccc23)NC(=O)[C@H]([C@@H](C)CC)NC1=O [Compound 13] (Ac-ICIWQDWGEHRC[Sar]-NH2; disulfide 2-12) | < 100 | –
CC[C@H](C)[C@@H]1NC(=O)[C@@H](NC(=O)[C@H](Cc2ccccc2)NC(=O)[C@H](CCC(=O)O)NC(=O)[C@H](CO)NC(C)=O)CSSC[C@@H](C(=O)N(C)CC(=O)N[C@@H](CCC(=O)O)C(=O)NCC(=O)N[C@@H](CCC(=O)O)C(=O)NCCOCCOCC(=O)NCCOCCOCC(=O)N[C@@H](CCCCNC(=O)CC[C@H](NC(=O)CNC(=O)CC[C@H](NC(=O)CCCCCCCCCCCCCCCCC(=O)O)C(=O)O)C(=O)O)C(N)=O)NC(=O)[C@H](CCCNC(=N)N)NC(=O)[C@H](Cc2c[nH]cn2)NC(=O)[C@H](CCC(=O)O)NC(=O)CNC(=O)[C@H](Cc2c[nH]c3ccccc23)NC(=O)[C@H](CC(=O)O)NC(=O)[C@H](CCC(N)=O)NC(=O)[C@H](Cc2cn(C)c3ccccc23)NC1=O [Compound 123] (Ac-SEFCI[Trp(1-Me)]QDWGEHRC[Sar]EGE[AEEA][AEEA]K([γGlu-Gly-γGlu-C18 diacid])-NH2; disulfide 4-14) | < 100 | –
CC[C@H](C)[C@H](NC(C)=O)C(=O)N[C@H]1CSSC[C@@H](C(=O)N[C@H](C(=O)N[C@@H](CCC(=O)O)C(=O)NCC(=O)N[C@@H](CCCCNC(=O)COCCOCCNC(=O)COCCOCCNC(=O)CC[C@H](NC(=O)CCCCCCCCCCCCCCCCC(=O)O)C(=O)O)C(N)=O)[C@@H](C)O)NC(=O)[C@H](CCCNC(=N)N)NC(=O)[C@H](Cc2c[nH]cn2)NC(=O)[C@H](CCC(=O)O)NC(=O)CNC(=O)[C@H](Cc2c[nH]c3ccccc23)NC(=O)[C@H](CC(=O)O)NC(=O)[C@H](CCC(N)=O)NC(=O)[C@H](Cc2c[nH]c3ccccc23)NC(=O)[C@H]([C@@H](C)CC)NC1=O [Compound 96] (Ac-ICIWQDWGEHRCTEGK([AEEA-AEEA-γGlu-C18 diacid])-NH2; disulfide 2-12) | < 1000 | –
CC[C@H](C)[C@H](NC(=O)CNC(=O)[C@H](CCCCN)NC(=O)[C@H](CCC(=O)O)NC(C)=O)C(=O)N[C@H]1CSSC[C@@H](C(=O)N[C@H](C(=O)N[C@@H](CCC(=O)O)C(=O)N[C@@H](CCCCN)C(=O)N2CCC[C@H]2C(N)=O)[C@@H](C)O)NC(=O)[C@H](CCCNC(=N)N)NC(=O)[C@H](Cc2c[nH]cn2)NC(=O)[C@H](CCC(=O)O)NC(=O)CNC(=O)[C@H](Cc2c[nH]c3ccccc23)NC(=O)[C@H](CC(=O)O)NC(=O)[C@H](CCC(N)=O)NC(=O)[C@H](Cc2c[nH]c3ccccc23)NC(=O)[C@H]([C@@H](C)CC)NC1=O [Compound 38] (Ac-EKGICIWQDWGEHRCTEKP-NH2; disulfide 5-15) | < 250 | –
CC[C@H](C)[C@@H]1NC(=O)[C@@H](NC(=O)[C@H](Cc2ccccc2)NC(=O)[C@H](CCC(=O)O)NC(=O)[C@H](CO)NC(C)=O)CSSC[C@@H](C(=O)N(C)CC(=O)N[C@@H](CCC(=O)O)C(=O)N[C@@H](C)C(N)=O)NC(=O)[C@H](CCCNC(=N)N)NC(=O)[C@H](Cc2c[nH]cn2)NC(=O)[C@H](CCC(=O)O)NC(=O)CNC(=O)[C@H](Cc2c[nH]c3ccccc23)NC(=O)[C@H](CC(=O)O)NC(=O)[C@H](CCC(N)=O)NC(=O)[C@H](Cc2cn(C)c3ccccc23)NC1=O [Compound 75] (Ac-SEFCI[Trp(1-Me)]QDWGEHRC[Sar]EA-NH2; disulfide 4-14) | < 100 | –
CC[C@H](C)[C@H](NC(C)=O)C(=O)N[C@H]1CSSC[C@@H](C(=O)N[C@H](C(N)=O)[C@@H](C)O)NC(=O)[C@H](CCCNC(=N)N)NC(=O)[C@H](Cc2c[nH]cn2)NC(=O)[C@H](CCCNC(=N)N)NC(=O)CNC(=O)[C@H](Cc2c[nH]c3ccccc23)NC(=O)[C@H](CC(=O)O)NC(=O)[C@H](CCC(N)=O)NC(=O)[C@H](Cc2c[nH]c3ccccc23)NC(=O)[C@H]([C@@H](C)CC)NC1=O [Compound 18] (Ac-ICIWQDWGRHRCT-NH2; disulfide 2-12) | < 100 | –
CC[C@H](C)[C@@H]1NC(=O)[C@@H](NC(=O)[C@H](Cc2ccccc2)NC(=O)[C@H](CCC(=O)O)NC(=O)[C@H](CO)NC(C)=O)CSSC[C@@H](C(=O)N[C@H](C(=O)N[C@@H](CCC(=O)O)C(=O)NCC(=O)N[C@@H](CCC(=O)O)C(=O)NCCOCCOCC(=O)NCCOCCOCC(=O)N[C@@H](CCCCNC(=O)CC[C@H](NC(=O)CNC(=O)CC[C@H](NC(=O)CCCCCCCCCCCCCCCCC(=O)O)C(=O)O)C(=O)O)C(N)=O)[C@@H](C)O)NC(=O)[C@H](CCCNC(=N)N)NC(=O)[C@H](Cc2c[nH]cn2)NC(=O)[C@H](CCC(=O)O)NC(=O)CNC(=O)[C@H](Cc2c[nH]c3ccccc23)NC(=O)[C@H](CC(=O)O)NC(=O)[C@H](CCC(N)=O)NC(=O)[C@H](Cc2cn(C)c3ccccc23)NC1=O [Compound 126] (Ac-SEFCI[Trp(1-Me)]QDWGEHRCTEGE[AEEA][AEEA]K([γGlu-Gly-γGlu-C18 diacid])-NH2; disulfide 4-14) | < 100 | –
CC[C@H](C)[C@@H]1NC(=O)[C@@H](NC(=O)CN(C)C(=O)[C@H](CCC(=O)O)NC(=O)[C@H](CO)NC(C)=O)CSSC[C@@H](C(=O)N(C)CC(=O)N[C@@H](CCC(=O)O)C(=O)N[C@@H](C)C(N)=O)NC(=O)[C@H](CCCNC(=N)N)NC(=O)[C@H](Cc2c[nH]cn2)NC(=O)[C@H](CCC(=O)O)NC(=O)CNC(=O)[C@H](Cc2c[nH]c3ccccc23)NC(=O)[C@H](CCC(=O)O)NC(=O)[C@H](CCC(N)=O)NC(=O)[C@H](Cc2cn(C)c3ccccc23)NC1=O [Compound 90] (Ac-SE[Sar]CI[Trp(1-Me)]QEWGEHRC[Sar]EA-NH2; disulfide 4-14) | < 250 | –
